# Test results: ChEMBL document CHEMBL2321685, “Lead optimization of isocytosine-derived xanthine oxidase inhibitors” (Bioorg Med Chem Lett, 2013)
# Active and inactive are the calls of the source. No cut-off for these calls is given here.
# What was measured:
# [1] = biological target: Xanthine dehydrogenase/oxidase (Bos taurus, UniProt P80457)
# Description: Inhibition of bovine xanthine oxidase-mediated uric acid production after 30 mins by spectrophotometric analysis
# Rattus norvegicus [2] = assay: Antihyperuricemic activity in rat assessed as reduction in potassium oxonate-induced serum uric acid level at 50 mg/kg, po administered at 1 hr prior to potassium oxonate-challenge measured up to 5 hrs relative to control; type: functional, organism-based; parameters: dose 50 mg/kg
# [3] = AUClast in Sprague-Dawley rat at 10 mg/kg, po; type: ADME, organism-based; parameters: time 0 - last, dose 10 mg/kg, route oral; conditions: plasma
# [4] = (§1) Metabolic stability in rat liver microsomes assessed as compound remaining after 60 mins; type: ADME, Microsome; conditions: liver microsomes, read-out: Stability
# [5] = (§2) Metabolic stability in rat plasma assessed as compound remaining after 60 mins; type: ADME, cell-free; conditions: read-out: Stability
# [6] = (§3) Cmax in Sprague-Dawley rat at 10 mg/kg, po; type: ADME, organism-based; parameters: dose 10 mg/kg, route oral; conditions: Sprague-Dawley, in vivo
# [7] = (§4) Metabolic stability in rat liver S9 fraction assessed as compound remaining after 60 mins; type: ADME, subcellular; conditions: liver S9 fraction, read-out: Stability
# [8] = Elimination half life in Sprague-Dawley rat at 10 mg/kg, po; type: ADME, organism-based; parameters: dose 10 mg/kg, route oral; conditions: in vivo, read-out: beta t1/2 (converted)
# Rattus norvegicus [9] = assay: Antihyperuricemic activity in po dosed rat assessed as reduction in potassium oxonate-induced serum uric acid level administered at 1 hr prior to potassium oxonate-challenge measured up to 5 hrs; type: functional
# [10] = Tmax in Sprague-Dawley rat at 10 mg/kg, po; type: ADME, organism-based; parameters: dose 10 mg/kg, route oral; conditions: in vivo
# [11] = Oral bioavailability in Sprague-Dawley rat at 10 mg/kg; type: ADME, organism-based; conditions: in vivo
# [12] = AUClast in Sprague-Dawley rat at 2 mg/kg, iv; type: ADME, organism-based; parameters: time 0 - last, dose 2 mg/kg, route intravenous; conditions: plasma
# [13] = Volume of distribution in Sprague-Dawley rat at 2 mg/kg, iv; type: ADME, organism-based; parameters: dose 2 mg/kg, route intravenous; conditions: in vivo
# [14] = Tmax in Sprague-Dawley rat at 2 mg/kg, iv; type: ADME, organism-based; parameters: dose 2 mg/kg, route intravenous; conditions: in vivo
# [15] = Initial plasma concentration in Sprague-Dawley rat at 2 mg/kg, iv; type: ADME, organism-based; parameters: dose 2 mg/kg, route intravenous
# [16] = Elimination half life in Sprague-Dawley rat at 2 mg/kg, iv; type: ADME, organism-based; parameters: dose 2 mg/kg, route intravenous; conditions: in vivo, read-out: beta t1/2 (converted)
# [17] = Clearance in Sprague-Dawley rat at 2 mg/kg, iv; type: ADME, organism-based; parameters: dose 2 mg/kg, route intravenous; conditions: in vivo
# Rattus norvegicus [18] = assay: Antihyperuricemic activity in rat assessed as reduction in potassium oxonate-induced serum uric acid level at 10 mg/kg, po administered at 1 hr prior to potassium oxonate-challenge measured up to 5 hrs relative to allopurinol; type: functional; parameters: scale not given: the % may be the effect or the level left
# Rattus norvegicus [19] = assay: Antihyperuricemic activity in rat assessed as reduction in potassium oxonate-induced serum uric acid level at 30 mg/kg, po administered at 1 hr prior to potassium oxonate-challenge measured up to 5 hrs relative to allopurinol; type: functional; parameters: scale not given: the % may be the effect or the level left
# [20] = Cmax in Sprague-Dawley rat at 2 mg/kg, iv; type: ADME, organism-based; parameters: dose 2 mg/kg, route intravenous; conditions: in vivo
# Liver microsomes = assay: as §1; type: ADME, Microsome; conditions: microsomes, 1 h
# Plasma = assay: as §2; type: ADME, cell-free; conditions: 1 h
# Liver = assay: as §4; type: ADME, subcellular; conditions: s9, 1 h
# Rattus norvegicus [21] = assay: as §3; type: ADME, organism-based; parameters: dose 10 mg/kg, route oral; conditions: in vivo, BLD = below limit of detection
# Rattus norvegicus [22] = assay: Tmax in Sprague-Dawley rat assessed as Methyl 4-((4-(2-amino-6-hydroxypyrimidin-4-yl)-2-cyanophenoxy)methyl)cyclohexanecarboxylate level at 10 mg/kg, po; type: ADME, organism-based; parameters: dose 10 mg/kg, route oral; conditions: in vivo
# Rattus norvegicus [23] = assay: AUClast in Sprague-Dawley rat assessed as Methyl 4-((4-(2-amino-6-hydroxypyrimidin-4-yl)-2-cyanophenoxy)methyl)cyclohexanecarboxylate level at 10 mg/kg, po; type: ADME, organism-based, Plasma; parameters: time 0 - last, dose 10 mg/kg, route oral; conditions: in vivo
# Rattus norvegicus [24] = assay: Cmax in Sprague-Dawley rat assessed as Methyl 4-((4-(2-amino-6-hydroxypyrimidin-4-yl)-2-cyanophenoxy)methyl)cyclohexanecarboxylate level at 10 mg/kg, po; type: ADME, organism-based; parameters: dose 10 mg/kg, route oral; conditions: in vivo
# Rattus norvegicus [25] = assay: Elimination half life in Sprague-Dawley rat assessed as Methyl 4-((4-(2-amino-6-hydroxypyrimidin-4-yl)-2-cyanophenoxy)methyl)cyclohexanecarboxylate level at 10 mg/kg, po; type: ADME, organism-based; parameters: dose 10 mg/kg, route oral; conditions: in vivo
# Rattus norvegicus [26] = assay: Elimination half life in Sprague-Dawley rat assessed as 2-(4-(2-amino-6-hydroxypyrimidin-4-yl)-2-cyanophenoxy)-2-methylpropanoic acid level at 10 mg/kg, po; type: ADME, organism-based; parameters: dose 10 mg/kg, route oral; conditions: in vivo
# Rattus norvegicus [27] = assay: Tmax in Sprague-Dawley rat assessed as 2-(4-(2-amino-6-hydroxypyrimidin-4-yl)-2-cyanophenoxy)-2-methylpropanoic acid level at 10 mg/kg, po; type: ADME, organism-based; parameters: dose 10 mg/kg, route oral; conditions: in vivo
# Rattus norvegicus [28] = assay: Cmax in Sprague-Dawley rat assessed as 2-(4-(2-amino-6-hydroxypyrimidin-4-yl)-2-cyanophenoxy)-2-methylpropanoic acid level at 10 mg/kg, po; type: ADME, organism-based; parameters: dose 10 mg/kg, route oral; conditions: in vivo
# Rattus norvegicus [29] = assay: AUClast in Sprague-Dawley rat assessed as 2-(4-(2-amino-6-hydroxypyrimidin-4-yl)-2-cyanophenoxy)-2-methylpropanoic acid level at 10 mg/kg, po; type: ADME, organism-based, Plasma; parameters: time 0 - last, dose 10 mg/kg, route oral; conditions: in vivo
# Sequence of Xanthine dehydrogenase/oxidase (P80457 whole entry): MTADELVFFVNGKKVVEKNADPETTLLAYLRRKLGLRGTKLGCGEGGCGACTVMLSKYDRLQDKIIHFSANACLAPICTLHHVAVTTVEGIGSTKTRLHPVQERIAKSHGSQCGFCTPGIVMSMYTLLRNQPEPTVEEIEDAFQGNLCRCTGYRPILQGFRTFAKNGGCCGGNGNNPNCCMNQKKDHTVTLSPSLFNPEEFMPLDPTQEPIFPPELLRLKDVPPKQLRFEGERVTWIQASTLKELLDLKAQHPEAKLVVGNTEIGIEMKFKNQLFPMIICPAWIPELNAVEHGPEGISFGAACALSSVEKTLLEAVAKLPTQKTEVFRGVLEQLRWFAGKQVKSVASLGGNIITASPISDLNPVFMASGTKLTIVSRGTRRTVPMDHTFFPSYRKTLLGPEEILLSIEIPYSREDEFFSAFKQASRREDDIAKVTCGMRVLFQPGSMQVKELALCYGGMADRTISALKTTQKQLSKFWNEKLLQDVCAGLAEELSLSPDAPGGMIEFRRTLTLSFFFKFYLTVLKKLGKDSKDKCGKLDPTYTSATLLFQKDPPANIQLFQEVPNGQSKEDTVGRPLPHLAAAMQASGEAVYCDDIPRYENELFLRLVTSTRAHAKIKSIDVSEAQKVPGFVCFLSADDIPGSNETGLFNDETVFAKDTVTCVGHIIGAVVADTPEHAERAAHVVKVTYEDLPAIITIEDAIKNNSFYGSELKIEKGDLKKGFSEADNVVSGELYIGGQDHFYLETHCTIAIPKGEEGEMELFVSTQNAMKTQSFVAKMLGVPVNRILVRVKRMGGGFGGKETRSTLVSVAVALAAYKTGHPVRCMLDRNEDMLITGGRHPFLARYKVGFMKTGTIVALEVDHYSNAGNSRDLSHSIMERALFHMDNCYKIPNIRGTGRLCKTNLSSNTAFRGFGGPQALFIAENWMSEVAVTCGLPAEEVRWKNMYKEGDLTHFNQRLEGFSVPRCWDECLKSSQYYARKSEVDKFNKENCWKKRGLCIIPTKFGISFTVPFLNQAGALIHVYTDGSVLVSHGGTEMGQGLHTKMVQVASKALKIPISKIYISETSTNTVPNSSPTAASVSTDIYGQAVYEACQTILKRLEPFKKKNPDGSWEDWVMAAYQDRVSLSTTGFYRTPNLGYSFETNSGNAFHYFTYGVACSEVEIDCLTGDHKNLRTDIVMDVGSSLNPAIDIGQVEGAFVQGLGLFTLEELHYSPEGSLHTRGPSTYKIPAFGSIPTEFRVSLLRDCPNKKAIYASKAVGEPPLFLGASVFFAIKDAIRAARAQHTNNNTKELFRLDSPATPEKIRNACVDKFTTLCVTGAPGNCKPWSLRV
smiles,measurement,setting,value
COC(=O)c1ccc(COc2ccc(-c3cc(O)nc(N)n3)cc2C#N)cc1,IC50,[1],0.009 µM
N#Cc1cc(-c2ccnc(N)n2)ccc1OCc1ccccc1C(F)(F)F,IC50,[1],0.06 µM
COC(=O)C(C)(C)COc1ccc(-c2cc(O)nc(N)n2)cc1C#N,Activity,Rattus norvegicus [2],Active
CC(C)(C)c1ccc(COc2ccc(-c3cc(=O)[nH]c(N)n3)cc2C#N)cc1,IC50,[1],0.019 µM
CC(C)(COc1ccc(-c2cc(O)nc(N)n2)cc1C#N)C(=O)O,IC50,[1],0.005 µM
same,AUC(0-t),[3],19.5 µg·h/mL
same,remaining at 1 h,[4],90.2%
same,remaining at 1 h,[5],33.9%
same,Cmax,[6],6.6 µM
same,remaining at 1 h,[7],98.9%
same,half-life,[8],4 h
COC(=O)C1CCC(COc2ccc(-c3ccnc(N)n3)cc2C#N)CC1 (centres undefined),IC50,[1],0.01 µM
same,remaining at 1 h,[4],0%
same,remaining at 1 h,[5],28%
same,remaining at 1 h,[7],11%
same,Activity,Rattus norvegicus [9],Active
N#Cc1cc(-c2ccnc(N)n2)ccc1OCC1CCCCC1,IC50,[1],0.05 µM
COc1ccc(-c2cc(O)nc(N)n2)cc1C#N,IC50,[1],0.16 µM
CC(C)(C)COc1ccc(-c2cc(=O)[nH]c(N)n2)cc1C#N,IC50,[1],0.004 µM
same,AUC(0-t),[3],0.297 µg·h/mL
same,remaining at 1 h,[5],99.7%
same,Cmax,[6],0.16 µM
same,half-life,[8],10.7 h
same,Tmax,[10],0.5 h
CC(C)COc1ccc(-c2cc(C(=O)O)nc(N)n2)cc1C#N,IC50,[1],0.4 µM
CC(C)COc1ccc(-c2ccnc(N)n2)cc1C#N,bioavailability,[11],13.4%
same,AUC(0-t),[12],2.99 µg·h/mL
same,IC50,[1],0.08 µM
same,Vd,[13],5.5 L/kg
same,AUC(0-t),[3],2 µg·h/mL
same,remaining at 1 h,[4],21.2%
same,Tmax,[14],1.8 min
same,remaining at 1 h,[5],88.4%
same,C0,[15],3.72 µg/mL
same,Cmax,[6],4.19 µM
same,remaining at 1 h,[7],71.3%
same,half-life,[16],5.96 h
same,Activity,Rattus norvegicus [9],Dose-dependent effect
same,ED50,Rattus norvegicus [9],10 mg/kg
same,clearance,[17],0.64 L/h/kg
same,half-life,[8],1.35 h
same,Activity,Rattus norvegicus [18],49%
same,Tmax,[10],0.75 h
same,Activity,Rattus norvegicus [19],70%
same,Cmax,[20],9.94 µM
N#Cc1cc(-c2cc(=O)[nH]c(N)n2)ccc1OCC1CCC(C(=O)O)CC1 (centres undefined),IC50,[1],0.009 µM
same,AUC(0-t),[3],0.119 µg·h/mL
same,remaining at 1 h,[4],90.6%
same,remaining at 1 h,[5],106%
same,Cmax,[6],0.05 µM
same,remaining at 1 h,[7],101%
same,Tmax,[10],4 h
CCC(CC)COc1ccc(-c2cc(=O)[nH]c(N)n2)cc1C#N,IC50,[1],0.01 µM
CC(C)COc1ccc(-c2cc(=O)[nH]c(N)n2)cc1C#N,bioavailability,[11],8.6%
same,remaining at 1 h,[4],91.5%
same,remaining at 1 h,[5],96%
same,C0,[15],1.36 µg/mL
same,remaining at 1 h,[7],65.6%
N#Cc1cc(-c2cc(O)nc(N)n2)ccc1OCC1CCCCC1,IC50,[1],0.01 µM
same,AUC(0-t),[3],0.109 µg·h/mL
same,remaining at 1 h,[4],97.3%
same,remaining at 1 h,[5],94%
same,Cmax,[6],0.04 µM
same,remaining at 1 h,[7],86.8%
same,half-life,[8],18 h
same,Tmax,[10],1 h
CC(C)COc1ccc(-c2cc(O)ncn2)cc1C#N,Activity,Rattus norvegicus [2],Active
CC(C)COc1ccc(-c2cc(=O)[nH]cn2)cc1C#N,IC50,[1],0.06 µM
same,AUC(0-t),[3],0.416 µg·h/mL
same,remaining at 1 h,[4],49.6%
same,remaining at 1 h,[5],90.5%
same,Cmax,[6],1.15 µM
same,remaining at 1 h,[7],13.5%
same,half-life,[8],9.88 h
same,Tmax,[10],0.25 h
Cc1nc(O)cc(-c2ccc(OCC(C)C)c(C#N)c2)n1,IC50,[1],> 30 µM
N#Cc1cc(-c2ccnc(N)n2)ccc1OCc1ccc(F)cc1,IC50,[1],0.15 µM
N#Cc1cc(-c2cc(=O)[nH]c(N)n2)ccc1OCc1ccc(F)cc1C(F)(F)F,IC50,[1],0.011 µM
N#Cc1cc(-c2cc(=O)[nH]c(N)n2)ccc1OCc1ccccc1,IC50,[1],0.017 µM
N#Cc1cc(-c2cc(O)nc(N)n2)ccc1OCc1ccccc1C(F)(F)F,IC50,[1],0.009 µM
N#Cc1cc(-c2ccnc(N)n2)ccc1OCC1CCC(C(=O)O)CC1 (centres undefined),IC50,[1],0.01 µM
same,Stability,Liver microsomes,Stable
same,Stability,Plasma,Stable
same,Stability,Liver,Stable
same,Activity,Rattus norvegicus [9],Active
N#Cc1cc(-c2cc(O)nc(N)n2)ccc1OCc1ccc(F)cc1,IC50,[1],0.007 µM
COC(=O)C1CCC(COc2ccc(-c3cc(O)nc(N)n3)cc2C#N)CC1 (centres undefined),IC50,[1],0.019 µM
same,remaining at 1 h,[4],0%
same,remaining at 1 h,[5],0%
same,Cmax,Rattus norvegicus [21],BLD
same,remaining at 1 h,[7],0%
same,Tmax,Rattus norvegicus [22],2 h
same,AUClast,Rattus norvegicus [23],0.79524 µg·h/mL
same,Cmax,Rattus norvegicus [24],0.34 µM
same,Activity,Rattus norvegicus [2],Active
same,beta t1/2,Rattus norvegicus [25],3.9 h
N#Cc1cc(-c2ccnc(N)n2)ccc1OCc1ccc(F)cc1C(F)(F)F,IC50,[1],0.08 µM
N#Cc1cc(-c2cc(=O)[nH]c(N)n2)ccc1OCC1CCC1,IC50,[1],0.018 µM
N#Cc1cc(-c2cc(=O)[nH]c(N)n2)ccc1OCc1ccc(C(=O)O)cc1,IC50,[1],0.005 µM
CC(C)COc1ccc(-c2cc(C(N)=O)nc(N)n2)cc1C#N,IC50,[1],3.9 µM
COC(=O)C(C)(C)COc1ccc(-c2cc(=O)[nH]c(N)n2)cc1C#N,beta t1/2,Rattus norvegicus [26],11.6 h
same,IC50,[1],0.015 µM
same,AUC(0-t),[3],0.0448 µg·h/mL
same,remaining at 1 h,[4],95.9%
same,remaining at 1 h,[5],30.2%
same,Tmax,Rattus norvegicus [27],4 h
same,Cmax,Rattus norvegicus [28],8.46 µM
same,Cmax,[6],0.04 µM
same,remaining at 1 h,[7],93.6%
same,half-life,[8],2.04 h
same,Tmax,[10],0.75 h
same,AUClast,Rattus norvegicus [29],22.69983 µg·h/mL
N#Cc1cc(-c2ccnc(N)n2)ccc1OCC1CCC1,IC50,[1],0.4 µM
CC(C)C(C)Oc1ccc(-c2cc(O)nc(N)n2)cc1C#N (centres undefined),IC50,[1],0.013 µM
